In patent US6841538B1, “Combination therapy using nucleic acids and radio therapy” (priority 1998, dated 2005):

Columns and labels:
tumor cells = details: Son and Huang 1994; cited from earlier work
HeLa-luc cells = assay: Luciferase gene expression in stably transfected HeLa-luc cells; assay type: cell-based, human; details: HeLa-luc, 0, 6 and 24 hours after arrest vs untreated control cells
Protocol: SK-OV-3 cells human ovarian tumor cells, ATCC) were cultured in RPMI 1640 media (StemCell Technologies, Vancouver, B.C.) supplemented with 10% fetal bovine serum (Intergen). HeLa-luc cells were stably transfected with a luciferase reporter plasmid and cultured in Dulbecco's modified Eagle medium (StemCell Technologies, Vancouver, B.C.) supplemented with 10% fetal bovine serum and 400 μg/mL Geneticin (Gibco BRL).
(§1) SK-OV-3 or HeLa-luc cells were seeded at a density of 30,000 cells per well in a 24 well plate in growth media 24 hours prior to treatment with aphidicolin. Aphidicolin (Sigma) was reconstituted in phosphate buffered saline containing 0.5% DMSO. Cells were incubated with aphidicolin at a final concentration of 5 μg/mL in 1 mL of media per well for 16 hours prior to transfection. Transfection was accomplished by the addition of 0.5 μg of formulated DNA to each well.
(§2) Luciferase assays were performed using the Luciferase Assay System kit (Promega, Madison, Wis.) according to the manufacturer's protocol. […] A standard curve was determined by assaying 20 μL of serial dilutions of a 1 mg/mL luciferase standard (Boehringer Mannheim). […] Absorbance was monitored at 570 nm (Dynatech MR5000 plate reader) and protein content calculated using a standard curve of varying concentrations of BSA.

SK-OV-3 cells [1] = assay: Semliki Forest Virus (SFV-luc) mediated luciferase gene expression; assay type: cell-based, human; details: SFV-luc m.o.i. 0.5
Protocol: as §1
Luciferase cDNA was cloned into the multiple cloning site of pSFV 1-3. Recombinant virus encoding luciferase was prepared according to the protocol described by Liljestrom and Garoff (Maniatis, et al., Molecular Cloning, Cold Spring Harbor, N.Y., 1981, pp. 93-94). Prior to infection of SK-OV-3 cells, virus particles were activated in 0.5 mg/mL chymotrypsin for 30 minutes at room temperature. Chymotrypsin was inactivated by the addition of aprotinin to a final concentration of 0.67 mg/mL. […]
as §2

SK-OV-3 cells [2] = assay: Uptake of YOYO-1 labeled plasmid lipoplexes by flow cytometry; assay type: cell-based, human; details: aphidicolin 5 μg/mL 16 hr; vs control cells
Protocol: as §1
For the plasmid DNA uptake experiments, the method previously described (Zabner, et al., J. Biol. Chem., 270:18997-19007 (1995); Tseng, et al., Biotechnol. Bioeng., 50:548-554 (1996)) using fluorescently labeled DNA and flow cytometry was used with the following modifications. Plasmid DNA was fluorescently labeled by incubation with YOYO-1 iodide (Molecular Probes, Eugene, Oreg.) at a dye:basepair ratio of […] for 10 minutes at 4° C. The sample was then dialyzed twice against autoclaved deionized water.
Lipoplexes were prepared using YOYO-1 labeled DNA and incubated with cells. […] Fluorescence was measured in the FL1 channel (λemission=530+/−15 nm) of a FACSort flow cytometer (Becton-Dickinson, San Jose, Calif.) equipped with an Ar- ion laser (λexcitation=488 nm). Data was collected from 10,000 cells and analyzed for fluorescence using CellQuest software.

SK-OV-3 cells [3] = assay: Lipid mediated transfection (lipoplexes or SPLPs), luciferase activity; assay type: cell-based, human; details: for increase in luciferase expression, (+/−) vs (−/−) culture: peak; for difference in luciferase activity between (−/−) and (+/+) cultures: 26 hrs
Protocol: Lipoplexes were prepared as follows: All reagents were sterile and cooled to 4° C. prior to complex preparation. A solution containing 62 μM dioleoyldimethylammonium chloride: 1,2-sn-dioleoylphosphatidylethanolamine (DODAC:DOPE) large unilamellar vesicles (LUVs) and a solution containing 10 μg/mL plasmid DNA were prepared in distilled water. The DNA was added to an equal volume of lipid dropwise, while vortexing. The solution was incubated on ice for 30 minutes prior to transfection. The resulting lipoplexes contained a final DNA concentration of 0.5 μg/100 μL and the cationic lipid:DNA (+:−) charge ratio was 1:1.
Plasmid containing a therapeutic gene was encapsulated as SPLP using the detergent dialysis method of INEX 351. The SPLP contained 42.5:42.5:15 mol % of DOPE:DODAC:1-O-[2′-(w-methoxypolyethyleneglycol) succinoyl]-2-N-octoylsphingosine, (PEG-CerC8), at a lipid:DNA ratio of 15:1 (w/w). SPLPs were separated from empty liposomes by centrifugation through a discontinuous sucrose gradient.
as §1
Luciferase assays were performed using the Luciferase Assay System kit (Promega, Madison, Wis.) according to the manufacturer's protocol. Cell samples were washed twice with PBS, lysed by incubation with 200 μL of lysis buffer (0.1% triton in 250 mM NaH2PO4, pH 7.4) for 20 min. 20 μL of cell lysate was assayed (in duplicate) using a mL3000 microtiter plate luminometer (Dynex Technologies). A standard curve was determined by assaying 20 μL of serial dilutions of a 1 mg/mL luciferase standard (Boehringer Mannheim). Cell lysate was assayed for protein content using the bicinchoninic acid (BCA) colorimetric method. Briefly, in a 96 well plate, 95 μL of water and 100 μL of the Micro BCA protein assay working reagent (Pierce) were added to 5 μL of cell lysate. The plates were shaken on a rotary platform at 100 rpm for 10 minutes before being incubated at 37° C. for 2 hours. Absorbance was monitored at 570 nm (Dynatech MR5000 plate reader) and protein content calculated using a standard curve of varying concentrations of BSA.

SK-OV-3 cells [4] = assay: Cell cycle status by propidium iodide flow cytometry; assay type: cell-based, human
Protocol: as §1
The cell cycle status of cultures was determined by flow cytometry of permeabilized cells that were stained with propidium iodide. Prior to harvesting, media was aspirated and the cells were washed twice with 2 mL phosphate buffered saline (PBS). After washing, 2-3 drops of pre-warmed trypsin-EDTA (0.25% trypsin, 1 mM EDTA; Gibco BRL) was added to each well and the plate was incubated at 37° C. until the cells had detached from the plate. Trypsin was inactivated by the addition of 1.5 mL of cold media; The samples were transferred to 6 mL polystyrene tubes (Becton-Dickenson, San Jose, Calif., USA) and centrifuged at 2000 rpm for 5 min (Beckman GS-6R, rotor GH3.8). Cells were fixed and permeabilized by incubation for 10 min in 70% methanol (pre-chilled to −70° C.). Samples were then centrifuged at 2000 rpm for 5 min and the cells were incubated in 0.5 mL of 150 μg/mL propidium iodide (Molecular Probes, Eugene, Oreg.) in PBS for 30 minutes on ice in the dark prior to analysis by flow cytometry. 5,000 cells were analyzed in the FL2 channel (λemission=585+/−21 nm) of a FACSort flow cytometer (Becton-Dickinson, San Jose, Calif.) equipped with an Ar- ion laser (λexcitation=488 nm)

MCA 207 tumor [5] = assay: Tumor growth, combination with INEX 303 pINEX-TK10 and ganciclovir; assay type: in vivo, C57 BL/6 mice; details: OncoTCS 0.5 mg/kg i.v. then INEX 303 pINEX-TK10 i.v. and ganciclovir i.p.
Protocol: C57 BL/6 mice are seeded subcutaneously with MCA 207 tumor cells. Tumor seeding is performed by standard techniques. Mice are seeded subcutaneously on the hip flank with 100,000 MCA-207 fibrosarcoma tumor cells by […] injection on day zero. The tumor cells are cultivated and prepared according to standard techniques using RPMI media with 10% Fetal Bovine Serum (see, for example, Current Protocols in Molecular Biology, Eds. Ausubel, F. M., et al.)
At 8, 16, 24, 30, 36, 42 or […] after OncoTCS treatment, the mice are injected i.v. via tail vein with INEX 303 containing pINEX-TK10 prepared as described herein (100 μg DNA with about 500 μg lipid all in about 200 μL total volume). Control mice receive HBS.
1 mg ganciclovir, which is in 200 μL PBS (approximately 50 mg/kg; commercially available from Hoffman La Roche) is administered by intraperitoneal injection 12 h and 24 h after SPLP administration.

MCA 207 tumor [6] = assay: Tumor growth, combination with pINEX-IL-12 in INEX 324; assay type: in vivo, C57 BL/6 mice; details: subtherapeutic vincristine (OncoTCS 0.5 mg/kg i.v.) then INEX 324 pINEX-IL-12 100 μg DNA i.v.
Protocol: C57 BL/6 mice are seeded subcutaneously with MCA 207 tumor cells. Tumor seeding is performed by standard techniques. Mice were seeded subcutaneously on the hip flank with 100,000 MCA-207 fibrosarcoma tumor cells by sub-cutaneous injection on day zero.
On days 7-10, when tumors had developed to useable sizes, mice were injected i.v. via tail vein with approximately 0.5 mg/kg of OncoTCS ([…]).
At 8, 16, 24, 30, 36, 42 or […] after OncoTCS treatment, the mice were injected i.v. via tail vein with INEX 324 (100 μg DNA pINEX-IL-12 with about 500 μg lipid all in about 200 μL total volume). Control mice received HBS.

[7] = (+/−) cultures, 1 hr exposure, either formulation

Compound | expression of plasmid delivered directly to tumor cells after drug treatment (tumor cells) | effect on level of luciferase gene expression (HeLa-luc cells) | pattern of SFV-luc gene expression between (−/−), (+/−) and (+/+) cultures (SK-OV-3 cells [1]) | effect of cell cycle arrest on internalization of lipoplexes (SK-OV-3 cells [2]) | time after removal of aphidicolin at which luciferase expression begins to increase (SK-OV-3 cells [3]; [7]) | time after removal of aphidicolin of maximum luciferase expression (SK-OV-3 cells [3]; [7]) | increase in luciferase expression, (+/−) vs (−/−) culture (SK-OV-3 cells [3]; SPLPs, 1 hr exposure) | difference in luciferase activity between (−/−) and (+/+) cultures (SK-OV-3 cells [3]; SPLPs) | increase in luciferase expression, (+/−) vs (−/−) culture (SK-OV-3 cells [3]; lipoplexes, 1 hr exposure) | decrease in luciferase gene expression, (+/+) culture (SK-OV-3 cells [3]; lipoplexes, 24 hrs continuous exposure, continued aphidicolin) | luciferase expression of (+/−) cultures vs (−/−) control (SK-OV-3 cells [3]; lipoplexes, 24 hrs, aphidicolin removed) | difference in luciferase activity between (−/−) and (+/+) cultures (SK-OV-3 cells [3]; lipoplexes) | cells in the G2/M phase, (+/−) culture (SK-OV-3 cells [4]; 16 hrs after removal of aphidicolin block) | cells progressed into the G1 phase after mitotic division, (+/−) culture (SK-OV-3 cells [4]; 22 hrs after removal of aphidicolin block) | cells remaining arrested in the G1 phase, (+/+) culture (SK-OV-3 cells [4]; end of the 24 incubation with lipoplexes, continued aphidicolin) | cells remaining arrested in the G1 phase, (+/+) cultures (SK-OV-3 cells [4]; throughout kinetics experiments (to 26 hrs) with lipoplexes or SPLPs) | tumor growth vs HSV-TK/ganciclovir system alone (MCA 207 tumor [5]) | tumor growth (MCA 207 tumor [6])
N.N.[Cl][Pt][Cl] [Cisplatin] | improved expression |  |  |  |  |  |  |  |  |  |  |  |  |  |  |  |  | 
C[C@@]1(CO)[C@H](O)CC[C@@]2(C)[C@H]1CC[C@H]1C[C@@H]3C[C@@]12CC[C@]3(O)CO [aphidicolin] |  | did not significantly affect | no significant difference | does not affect the internalization of lipoplexes | approximately 10 hours | 12 h | 8 fold | 20 fold | 3 fold | 20 fold | did not differ significantly | approximately 40 fold | approximately 85% | ~45% | approximately 95% | 95% |  | 
CC[C@]1(O)C[C@H]2CN(CCc3c([nH]c4ccccc34)[C@@](C(=O)OC)(c3cc4c(cc3OC)N(C=O)[C@H]3[C@@](O)(C(=O)OC)[C@H](OC(C)=O)[C@]5(CC)C=CCN6CC[C@]43[C@@H]65)C2)C1 [Vincristine] | not found to be effective |  |  |  |  |  |  |  |  |  |  |  |  |  |  |  | inhibits growth of tumors and promotes tumor regression to a significantly greater degree | Tumor growth is inhibited and regression in tumor size is visible
